Laboratory results: PubChem BioAssay AID743341 (Broad Institute, 2014)
Results filed as inconclusive are left out. Activity calls are given as the source filed them.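 How the source made its calls: active means fitted curve of myotube length rescue reaches 40% at or below the top valid tested dose in every replicate test; inconclusive means replicate tests give mixed outcomes; inactive means every replicate test inactive, including effects in the opposite direction.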

Tests used:
[1] = test system: C2C12 myotubes + simvastatin, MHC imaging tube length, 48 h; test: suppression of statin-driven myotube degradation – imaging, C2C12 myotubes, MHC immunostaining, dry powder, orthogonal assay for statin myotoxicity suppressor project, confirmation (AID 743341)
[2] = as above; conditions: C2C12 myotubes + simvastatin, MHC imaging tube length, 48 h

SMILES	AC40 [1] [µM]	rescue of myotube length ([2]; at 19.5 µM (top of the series))	also measured
C[C@H]1CN([C@@H](C)CO)C(=O)Cc2cc(NC(=O)CCCCCC(=O)Nc3ccccc3N)ccc2O[C@H]1CN(C)Cc1ccc(Oc2ccccc2)cc1	3.07		
N#C[C@H]1[C@H](c2ccc(C#Cc3ccc(F)cc3)cc2)[C@H](CO)N1c1nc(-c2ccccc2)cs1		25.1% (inactive)	
CCCNC(=O)N1[C@@H](C#N)[C@@H](c2ccc(-c3ccccc3F)cc2)[C@@H]1CO			rescue of myotube length ([2]; at 21 µM (top of the series)): -2.07% (inactive)
C[C@H](CO)N1C[C@H](C)[C@H](CN(C)Cc2ccc3c(c2)OCO3)Oc2ccc(NC(=O)CCCCCC(=O)Nc3ccccc3N)cc2CC1=O			rescue of myotube length ([2]; at 18 µM (top of the series)): 19.7% (inactive)
C[C@H]1CN([C@@H](C)CO)C(=O)Cc2cc(NC(=O)CCCCCC(=O)Nc3ccccc3N)ccc2O[C@H]1CN(C)Cc1ccc(C(F)(F)F)cc1	10.3		
C[C@@H]1CN([C@H](C)CO)C(=O)Cc2cc(NS(=O)(=O)c3ccc(Cl)cc3)ccc2O[C@H]1CN(C)Cc1ccccc1		0.917% (inactive)	
C[C@@H]1CN([C@@H](C)CO)C(=O)Cc2cc(NC(=O)CCCCCC(=O)Nc3ccccc3N)ccc2O[C@@H]1CN(C)Cc1ccc(Oc2ccccc2)cc1			rescue of myotube length ([2]; at 21 µM (top of the series)): -5.63% (inactive)
COc1ccc(S(=O)(=O)Nc2cccc3c2O[C@H](CN(C)C(=O)Nc2ccc(F)cc2)[C@H](C)CN([C@@H](C)CO)C3=O)cc1		-2.59% (inactive)	
COc1ccc(C#Cc2cnc3c(c2)C(=O)N([C@H](C)CO)C[C@H](C)[C@H](CN(C)Cc2ccccc2)O3)cc1OC		-10.4% (inactive)	
COc1ccc(CN(C)C[C@H]2Oc3ccc(NS(=O)(=O)c4ccc(Cl)cc4)cc3CC(=O)N([C@@H](C)CO)C[C@@H]2C)cc1		-19% (inactive)	
C[C@H](CO)N1C[C@H](C)[C@@H](CN(C)Cc2ccc(C(=O)Nc3ccccc3N)cc2)Oc2ccc(NC(=O)Cc3cn(C)c4ccccc34)cc2C1=O	10.2		
C[C@H]1CN([C@@H](C)CO)C(=O)c2cc(N(C)C)ccc2O[C@@H]1CN(C)Cc1ccc(C(=O)Nc2ccccc2N)cc1	1.55		
C[C@@H]1CN([C@H](C)CO)C(=O)c2cc(NC(=O)Nc3cccc4ccccc34)ccc2O[C@@H]1CN(C)Cc1ccc(C(=O)Nc2ccccc2N)cc1	6.47		
C[C@H]1CN([C@@H](C)CO)C(=O)Cc2cc(NC(=O)Nc3cccc4ccccc34)ccc2O[C@H]1CN(C)Cc1ccc(C(=O)Nc2ccccc2N)cc1	4.57		
N#C[C@@H]1[C@@H](c2ccccc2-c2cccc(F)c2)[C@H](CO)N1C(=O)NC1CCCC1		10.7% (inactive)	
COc1ccc(S(=O)(=O)Nc2ccc3c(c2)CC(=O)N([C@H](C)CO)C[C@H](C)[C@@H](CN(C)Cc2ccc(Cl)c(Cl)c2)O3)cc1		-14.2% (inactive)	

SMILES	AC40 [1] [µM]	rescue of myotube length ([2]; at 19.5 µM (top of the series))	also measured
Cc1noc(C)c1S(=O)(=O)Nc1ccc2c(c1)CC(=O)N([C@H](C)CO)C[C@@H](C)[C@@H](CN(C)Cc1ccc(-c3ccccc3)cc1)O2			rescue of myotube length ([2]; at 21 µM (top of the series)): -14.9% (inactive)
N#C[C@@H]1[C@@H](c2ccc(-c3ccc(F)cc3)cc2)[C@H](CO)N1C(=O)Cc1ccccc1	15		
CCCNC(=O)N1[C@H](CO)[C@H](c2ccccc2)[C@@H]1C#N		1.19% (inactive)	
C[C@@H]1CN([C@H](C)CO)C(=O)Cc2cc(NC(=O)CCCCCC(=O)Nc3ccccc3N)ccc2O[C@@H]1CN(C)Cc1ccc(Oc2ccccc2)cc1		-9.32% (inactive)	
N#C[C@H]1[C@H](c2ccc(-c3cccc(F)c3)cc2)[C@H](CO)N1C(=O)NC1CCCC1		14.9% (inactive)	
CC(C)=CCC/C(C)=C/CC/C(C)=C/CC/C(C)=C/CO	4.25		
COc1ccc(S(=O)(=O)Nc2ccc3c(c2)CC(=O)N([C@H](C)CO)C[C@@H](C)[C@H](CN(C)CC2CCCCC2)O3)cc1		-8.93% (inactive)	
N#C[C@@H]1[C@@H](c2ccc(C#Cc3cccnc3)cc2)[C@@H](CO)N1C(=O)C1CCCC1		5.74% (inactive)	
C[C@@H]1CN([C@H](C)CO)C(=O)Cc2cc(NC(=O)C3CCCCC3)ccc2O[C@H]1CN(C)Cc1ccc(Cl)c(Cl)c1	7.84		
CC(C)CC#Cc1cnc2c(c1)C(=O)N([C@H](C)CO)C[C@H](C)[C@@H](CN(C)C(=O)Cc1ccccc1)O2			rescue of myotube length ([2]; at 21 µM (top of the series)): -0.121% (inactive)
C[C@@H]1CN([C@H](C)CO)C(=O)Cc2cc(NS(=O)(=O)c3cn(C)cn3)ccc2O[C@@H]1CN(C)Cc1ccc(Cl)c(Cl)c1		24% (inactive)	
C[C@H]1CN([C@@H](C)CO)S(=O)(=O)c2ccc(C#Cc3ccc(F)cc3)cc2O[C@@H]1CN(C)S(=O)(=O)c1cn(C)cn1	13		
N#C[C@@H]1[C@@H](c2ccc(C3=CCCCC3)cc2)[C@H](CO)N1C(=O)NC1CCCC1		9.82% (inactive)	
COc1ccc(C#Cc2cnc3c(c2)C(=O)N([C@H](C)CO)C[C@H](C)[C@@H](CN(C)C(=O)Nc2cccc(OC)c2)O3)cc1		30.4% (inactive)	
N#C[C@@H]1[C@@H](c2ccc(C#CC3CCCC3)cc2)[C@H](CO)N1S(=O)(=O)c1ccccc1			rescue of myotube length ([2]; at 21 µM (top of the series)): 4.55% (inactive)
